According to patent US12351571B2, “Substituted quinoxaline compounds as inhibitors of FGFR tyrosine kinases” (ARRAY BIOPHARMA INC., priority 2018, dated 2025):

Legend:
dephosphorylated FGFR2 = dephosphorylated FGFR2 (Homo sapiens (Human), UniProt P21802); experiment: FGFR Enzyme Binding Assay (HTRF tracer displacement), FGFR2; conditions: 5 nM dephosphorylated FGFR2, 60 minute incubation at 22° C.; read-out: FGFR2 Enz Binding IC50
Description: The potency of compounds inhibiting human isoforms of FGFR kinase was determined using Life Technologies' Homogeneous Time Resolved Fluorescence (HTRF)-based binding assay technology. An incubation was conducted with either 5 nM dephosphorylated FGFR1 (Array Biopharma, p1702; SEQ ID NO: 1, amino acids 458 to 765, dephosphorylated by co-expression with PTP1b (protein tyrosine phosphatase 1B)), 5 nM dephosphorylated FGFR2 (Life Technologies, Cat. No. PV4106 that had been dephosphorylated with Lambda protein phosphatase (New England Biolabs, cat #P0753)) or 5 nM phosphorylated FGFR3 (Array Biopharma, p1836; SEQ ID NO: 5, amino acids 449 to 759), 50 nM Kinase Tracer 236 (Life Technologies Cat. No. PR9078A), 2 nM Biotin-anti-6HIS (Life Technologies Cat. No. PV6090) and 2 nM Europium-Streptavidin (Life Technologies Cat. No. PV6025) along with test compound in a buffer consisting of 50 mM HEPES ((4-(2-hydroxyethyl)-1-piperazineethanesulfonic acid, pH 7.5), 5 mM MgCl2, 0.005% Triton X-100, 1 mM DTT, 1 mM NaVO4 and 2% DMSO in a final volume of 12 μL Compounds were typically prepared as a 3-fold or 4-fold serial dilution in DMSO and added to the assay to give the appropriate final concentration. After a 60 minute incubation at 22° C., the extent of tracer displacement was determined using a PerkinElmer EnVision multimode plate reader via HTRF dual wavelength detection, and the percent of control (POC) was calculated using a ratiometric emission factor. One hundred POC was determined using no test compound, and 0 POC was determined in the presence of 1 μM of an appropriate control inhibitor. A 4-parameter logistic curve was fit to the POC values as a function of the concentration of compound, and the IC50 value was the point where the best-fit curve crossed 50 POC.

human wild type FGFR2 = human wild type FGFR2 (Homo sapiens (Human), UniProt P21802); experiment: FGFR2 pFGFR Cell Assay; type: cell-based; conditions: HEK-293 cells, 1 hour compound, 30 ng/ml human FGF-acidic, ELISA
human wild type FGFR2, sequence (P21802 22-821): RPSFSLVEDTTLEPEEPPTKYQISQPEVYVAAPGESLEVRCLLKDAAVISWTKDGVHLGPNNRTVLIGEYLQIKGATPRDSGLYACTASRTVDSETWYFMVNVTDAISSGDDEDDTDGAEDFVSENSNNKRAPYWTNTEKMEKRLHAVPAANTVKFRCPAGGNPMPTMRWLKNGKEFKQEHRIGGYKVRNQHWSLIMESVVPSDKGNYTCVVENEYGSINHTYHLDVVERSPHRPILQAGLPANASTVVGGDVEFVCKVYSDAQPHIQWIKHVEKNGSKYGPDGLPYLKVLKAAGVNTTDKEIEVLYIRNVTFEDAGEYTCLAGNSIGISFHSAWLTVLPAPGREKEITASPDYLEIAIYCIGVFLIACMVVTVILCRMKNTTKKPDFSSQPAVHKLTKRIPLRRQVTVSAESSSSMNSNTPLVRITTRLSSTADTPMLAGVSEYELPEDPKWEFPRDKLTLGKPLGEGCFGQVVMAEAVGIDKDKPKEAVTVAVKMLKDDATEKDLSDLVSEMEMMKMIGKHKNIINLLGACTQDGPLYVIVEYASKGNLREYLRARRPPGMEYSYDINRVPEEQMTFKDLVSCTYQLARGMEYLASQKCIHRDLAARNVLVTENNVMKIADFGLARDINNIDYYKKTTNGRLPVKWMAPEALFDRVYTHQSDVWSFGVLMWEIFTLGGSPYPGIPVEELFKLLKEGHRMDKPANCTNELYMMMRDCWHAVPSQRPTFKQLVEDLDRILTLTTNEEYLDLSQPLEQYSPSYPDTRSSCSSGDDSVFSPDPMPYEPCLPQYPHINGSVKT
Description: (§1) HEK-293 cells transfected with dox-inducible human wild type FGFR2 (SEQ ID NO: 3) were plated in a collagen or poly-D-lysine coated 96 well flat bottom plates at 4×10^5 cells/well in complete DMEM medium containing 10% FBS and 1 μg/ml doxycycline and allowed to attach for 24 h at 37° C., 5% CO2. Cells were treated with compound using 1:3 serial dilutions with a maximum final concentration of 5 μM. Compound was incubated on cells for 1 hour at 37° C., 5% CO2. Cells were then stimulated with a final concentration of 30 ng/ml human FGF-acidic (R&D Systems Cat number 232-FA/CF) for 5 minutes at 37° C., 5% CO2. Medium was removed and cells were lysed with lysis buffer containing phosphatase and protease inhibitors. Phospho FGFR2 was measured by ELISA (R&D Systems cat. no. DYC684). The ELISA captures total FGFR2 and detects total phospho tyrosine. Optical density was measured for each well using a Versamax reader at a wavelength of 450 nm. 100 POC was determined using no test compounds and 0 POC was determined using a control compound. The POC values were fit to a 4-parameter logistic curve as a function of the concentration of the compound, and the IC50 value is the point where the curve crosses 50 POC.

human wild type FGFR3 = human wild type FGFR3 (Homo sapiens (Human), UniProt P22607); experiment: FGFR3 pFGFR Cell Assay; type: cell-based; conditions: HEK-293 cells, 1 hour compound, 100 ng/ml human FGF-acidic, ELISA
human wild type FGFR3, sequence (P22607 23-806): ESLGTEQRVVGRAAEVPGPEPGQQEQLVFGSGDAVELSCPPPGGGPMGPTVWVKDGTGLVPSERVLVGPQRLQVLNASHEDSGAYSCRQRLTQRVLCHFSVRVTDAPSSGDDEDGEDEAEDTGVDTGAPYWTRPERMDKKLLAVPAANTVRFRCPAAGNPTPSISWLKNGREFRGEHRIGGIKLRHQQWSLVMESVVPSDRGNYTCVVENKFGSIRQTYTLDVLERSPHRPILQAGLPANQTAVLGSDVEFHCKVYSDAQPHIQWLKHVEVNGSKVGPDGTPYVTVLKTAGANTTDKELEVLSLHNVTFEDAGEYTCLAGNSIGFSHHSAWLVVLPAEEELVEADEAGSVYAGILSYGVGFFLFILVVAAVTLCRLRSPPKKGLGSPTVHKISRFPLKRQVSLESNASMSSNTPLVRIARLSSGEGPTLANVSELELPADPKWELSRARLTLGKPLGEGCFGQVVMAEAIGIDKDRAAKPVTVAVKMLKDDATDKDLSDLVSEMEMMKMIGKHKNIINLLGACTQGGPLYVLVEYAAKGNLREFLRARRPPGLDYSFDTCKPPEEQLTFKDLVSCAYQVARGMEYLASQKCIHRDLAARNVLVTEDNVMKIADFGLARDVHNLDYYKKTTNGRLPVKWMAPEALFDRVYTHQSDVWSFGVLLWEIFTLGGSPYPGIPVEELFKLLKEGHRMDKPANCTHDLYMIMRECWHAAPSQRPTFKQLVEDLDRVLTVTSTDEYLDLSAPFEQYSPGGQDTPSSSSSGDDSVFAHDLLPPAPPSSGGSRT
Description: as §1, with “FGFR3” for “FGFR2”, “5)” for “3)”, “top” for “maximum”, “100” for “30”, “FGF-acidic” for “FGF-acidic (R&D Systems Cat number 232-FA/CF)”, “cat DYC2719).” for “cat. no. DYC684).”

dephosphorylated FGFR2, sequence (P21802 22-821): as the sequence (P21802 22-821) above

Compound	IC50 (dephosphorylated FGFR2)	IC50 (human wild type FGFR2)	IC50 (human wild type FGFR3)
C=CC(=O)N1CC(C(=O)N2CCC(n3cc(-c4cnc5ccc(Nc6cc(OC)cc(OC)c6)cc5n4)cn3)CC2)C1 [Example 1, 1-(3-(4-(4-(7-((3,5-dimethoxyphenyl)amino)quinoxalin-2-yl)-1H-pyrazol-1-yl)piperidine-1-carbonyl)azetidin-1-yl)prop-2-en-1-one]	3 nM	140 nM	35 nM
C=CC(=O)N1CC(F)(C(=O)N2CCC(n3cc(-c4cnc5ccc(Nc6cc(OC)cc(OC)c6)cc5n4)cn3)CC2)C1 [Example 4, 1-(3-(4-(4-(7-((3,5-dimethoxyphenyl)amino)-quinoxalin-2-yl)-1H-pyrazol-1-yl)piperidine-1-carbonyl)-3-fluoro-azetidin-1-yl)prop-2-en-1-one]	4 nM	–	17 nM
C=CC(=O)N1CC(C(=O)N2CCN(c3ccc(-c4cnc5ccc(Nc6cc(OC)cc(OC)c6)cc5n4)cn3)CC2)C1 [Example 5, 1-(3-(4-(5-(7-((3,5-dimethoxyphenyl)amino)-quinoxalin-2-yl)pyridin-2-yl)piperazine-1-carbonyl)azetidin-1-yl)-prop-2-en-1-one]	–	486 nM	–
COc1cc(Nc2ccc3ncc(-c4ccc(N5CCN(C(=O)C6CN(C(=O)/C=C/CN(C)C)C6)CC5)nc4)nc3c2)cc(OC)c1 [Example 6, (E)-1-(3-(4-(5-(7-((3,5-dimethoxyphenyl)amino)-quinoxalin-2-yl)pyridin-2-yl)piperazine-1-carbonyl)azetidin-1-yl)-4-(dimethylamino)but-2-en-1-one]	14 nM	–	–
COc1cc(Nc2ccc3ncc(-c4ccc(N5CCN(C(=O)C6(F)CN(C(=O)/C=C/CN(C)C)C6)CC5)nc4)nc3c2)cc(OC)c1 [Example 7, (E)-1-(3-(4-(5-(7-((3,5-dimethoxyphenyl)amino)-quinoxalin-2-yl)pyridin-2-yl)piperazine-1-carbonyl)-3-fluoroazetidin-1-yl)-4-(dimethylamino)but-2-en-1-one]	18 nM	182 nM	–
COc1cc(Nc2ccc3ncc(-c4cnn(C5CCN(C(=O)C6(F)CN(C(=O)/C=C/CN(C)C)C6)CC5)c4)nc3c2)cc(OC)c1 [Example 10, (E)-1-(3-(4-(4-(7-((3,5-dimethoxyphenyl)amino)-quinoxalin-2-yl)-1H-pyrazol-1-yl)piperidine-1-carbonyl)-3-fluoro-azetidin-1-yl)-4-(dimethylamino)but-2-en-1-one]	6 nM	28 nM	–
COc1cc(Nc2ccc3ncc(-c4cnc(N5CCN(C(=O)C6(F)CN(C(=O)/C=C/CN(C)C)C6)CC5)cc4C)nc3c2)cc(OC)c1 [Example 14, (E)-1-(3-(4-(5-(7-((3,5-dimethoxyphenyl)amino)-quinoxalin-2-yl)-4-methylpyridin-2-yl)-piperazine-1-carbonyl)-3-fluoroazetidin-1-yl)-4-(dimethylamino)but-2-en-1-one]	290 nM	–	–
COc1cc(Nc2ccc3ncc(-c4cnn(C5CCN(C(=O)C6(F)CN(C(=O)/C=C/CN(C)C)C6)CC5)c4C)nc3c2)cc(OC)c1 [Example 17, (E)-1-(3-(4-(4-(7-((3,5-dimethoxyphenyl)amino)-quinoxalin-2-yl)-5-methyl-1H-pyrazol-1-yl)piperi-dine-1-carbonyl)-3-fluoroazetidin-1-yl)-4-(dimethylamino)but-2-en-1-one]	–	170 nM	–
COc1cc(Nc2ccc3ncc(-c4cn(C5CCN(C(=O)C6(F)CN(C(=O)/C=C/CN(C)C)C6)CC5)nc4C)nc3c2)cc(OC)c1 [Example 22, (E)-1-(3-(4-(4-(7-((3,5-dimethoxyphenyl)amino)-quinoxalin-2-yl)-3-methyl-1H-pyrazol-1-yl)-piperidine-1-carbonyl)-3-fluoroazetidin-1-yl)-4-(dimethylamino)but-2-en-1-one]	19 nM	301 nM	–
COc1cc(Nc2ccc3ncc(-c4c(C)nn(C5CCN(C(=O)C6(F)CN(C(=O)/C=C/CN(C)C)C6)CC5)c4C)nc3c2)cc(OC)c1 [Example 23, (E)-1-(3-(4-(4-(7-((3,5-dimethoxyphenyl)amino)-quinoxalin-2-yl)-3,5-dimethyl-1H-pyrazol-1-yl)piperidine-1-carbonyl)-3-fluoroazetidin-1-yl)-4-(dimethylamino)but-2-en-1-one]	38 nM	–	–
C=CC(=O)N1CC(OC)(C(=O)N2CCC(n3cc(-c4cnc5ccc(Nc6cc(OC)cc(OC)c6)cc5n4)cn3)CC2)C1 [Example 24, 1-(3-(4-(4-(7-((3,5-dimethoxyphenyl)amino)-quinoxalin-2-yl)-1H-pyrazol-1-yl)piperidine-1-carbonyl)-3-methoxy-azetidin-1-yl)prop-2-en-1-one]	8 nM	49 nM	–
C=CC(=O)N1CC(C(=O)N2CCN(c3cccc(-c4cnc5ccc(Nc6cc(OC)cc(OC)c6)cc5n4)c3)CC2)C1 [Example 25, 1-(3-(4-(3-(7-((3,5-dimethoxyphenyl)amino)-quinoxalin-2-yl)phenyl)-piperazine-1-carbonyl)-azetidin-1-yl)prop-2-en-1-one]	157 nM	–	–
C=CC(=O)N1CC(O)(C(=O)N2CCC(n3cc(-c4cnc5ccc(Nc6cc(OC)cc(OC)c6)cc5n4)cn3)CC2)C1 [Example 26, 1-(3-(4-(4-(7-((3,5-dimethoxyphenyl)amino)quinoxalin-2-yl)-1H-pyrazol-1-yl)piperidine-1-carbonyl)-3-hydroxyazetidin-1-yl)prop-2-en-1-one]	5 nM	–	–
C=CC(=O)N1CC(O)(C(=O)N2CCC(n3cc(-c4cnc5ccc(N(C)c6cc(OC)cc(OC)c6)cc5n4)cn3)CC2)C1 [Example 27, 1-(3-(4-(4-(7-((3,5-dimethoxyphenyl)(methyl)amino)quinoxalin-2-yl)-1H-pyrazol-1-yl)piperidine-1-carbonyl)-3-hydroxyazetidin-1-yl)prop-2-en-1-one]	3 nM	37 nM	–
C#CCN(c1cc(OC)cc(OC)c1)c1ccc2ncc(-c3cnn(C4CCN(C(=O)C5(F)CN(C(=O)/C=C/CN(C)C)C5)CC4)c3)nc2c1 [Example 28, (E)-1-(3-(4-(4-(7-((3,5-dimethoxyphenyl)(prop-2-yn-1-yl)amino)quinoxalin-2-yl)-1H-pyrazol-1-yl)piperidine-1-carbonyl)-3-fluoroazetidin-1-yl)-4-(dimethylamino)but-2-en-1-one]	3 nM	6 nM	–
C=CC(=O)N1CC(CN2CCC(n3cc(-c4cnc5ccc(Nc6cc(OC)cc(OC)c6)cc5n4)cn3)CC2)(OC)C1 [Example 29, 1-(3-((4-(4-(7-((3,5-dimethoxyphenyl)amino)quinoxalin-2-yl)-1H-pyrazol-1-yl)piperidin-1-yl)methyl)-3-methoxyazetidin-1-yl)prop-2-en-1-one]	5 nM	56 nM	–
C=CC(=O)N1CC(CN2CCC(n3cc(-c4cnc5ccc(Nc6cc(OC)cc(OC)c6)cc5n4)cn3)CC2)C1 [Example 30, 1-(3-((4-(4-(7-((3,5-dimethoxyphenyl)amino)quinoxalin-2-yl)-1H-pyrazol-1-yl)piperidin-1-yl)methyl)azetidin-1-yl)prop-2-en-1-one]	5 nM	62 nM	–
